The values that follow come from patent US20190209581A1, “DOSAGE REGIMEN FOR TREATMENT OF SOLID TUMORS” (Eli Lilly and Company, priority 2016, published 2019).

For series [1], the system named is Dogs (beagle). Kind of series: Toxicity study in dogs, oral gavage, daily for 6 days or every other day for 3 doses. Type of series: in vivo, dog. Particulars: for Survival: dogs. Here is the method:
A study is carried out to assess the Toxicity and Toxicokinetics of 4,4,4-trifluoro-N-[(1S)-2-[[(7S)-5-(2-hydroxyethyl)-6-oxo-7H-pyrido[2,3-d][3]benzazepin-7-yl]amino]-1-methyl-2-oxo-ethyl]butanamide in dogs given oral gavage doses of 0 or 1.3 mg/kg once daily for 6 days or 0.3 or 3 mg/kg every other day for a total of 3 doses. 4,4,4-Trifluoro-N-[(1S)-2-[[(7S)-5-(2-hydroxyethyl)-6-oxo-7H-pyrido[2,3-d][3]benzazepin-7-yl]amino]-1-methyl-2-oxo-ethyl]butanamide is combined with a vehicle comprising 1% carboxymethylcellulose sodium, 0.25% polysorbate 80 and 0.05% Dow Corning® Antifoam 1510-US in purified water. Dogs (beagle), Covance Research Products, 1 animal/sex/group are fed daily (soon after dosing) and are fasted overnight prior to scheduled chemistry blood collections and necropsy. The test compound is administered by oral gavage in a volume of 2 mL/kg body weight. The duration of the study for all groups is 6 days.
Groups 01 and 04: At a minimum, observations are recorded daily before dosing, approximately 1 hour postdose, and in the afternoon, with the following exception: afternoon clinical observations are not recorded on weekends.
Groups 02 and 03: At a minimum, observations are recorded before dosing, approximately 1 hour postdose, and in the afternoon on Days 2 and 6; before dosing and approximately 1 hour postdose on Day 4; and at approximately the same times as Groups 01 and/or 04 on Days 3, 5, and 7.
Animals are weighed on Days 1 and 7.
A qualitative assessment of food consumption is made each day by visual estimation of the amount of food remaining (recorded in increments of 25%).
Groups 01 and 04: Blood samples are collected before dosing on Day 1 and on Day 7 (not dosed on Day 7).
Groups 02 and 03: Blood samples are collected before dosing on Days 1 and 6.
Urine samples are collected from all animals by cystocentesis at the scheduled necropsy.

Series [2] deals with K-562 human chronic myelogenous leukemia (CML) cell line. Briefly: Tumor growth inhibition, K-562 xenograft. Type of series: in vivo. Particulars: K-562 in mice, oral 8 mg/kg, (Mon, Wed, Fri)x4; p <0.05 to <0.001. As for the experimental part: To evaluate in vivo efficacy and effect of 4,4,4-Trifluoro-N-[(1S)-2-[[(7S)-5-(2-hydroxyethyl)-6-oxo-7H-pyrido[2,3-d][3]benzazepin-7-yl]amino]-1-methyl-2-oxo-ethyl]butanamide on inhibition of Notch processing pharmacodynamics (PD), several cell lines- and patient-derived xenograft models are used. A2780 is a human ovarian cell line (Sigma-Aldrich, No. 93112519); SW480 is a human colorectal cell line (ATCC No. CCL-228); HCT 116 is a human colorectal cell line (ATCC No. CCL-247); U-87 MG is a human glioblastoma cell line (ATCC No. HTB-14); A375 is a human malignant melanoma cell line (ATCC No. CRL-1619); K-562 is a human chronic myelogenous leukemia (CML) cell line characterized by the presence of a fusion transcript comprised of the Bcr and Abl1 genes (ATCC No. CCL-243); Jurkat; HEL 92.1.7 is a human erythroleukemia cell line (ATCC No. TIB-180). […] Tumor growth and body weight are monitored over time to evaluate efficacy and signs of toxicity. Bidimensional measurements of tumors are performed twice a week and tumor volumes are calculated based on the following formula: (Tumor Volume)=[(L)×(W2)×(Π/6)] where L is mid-axis length and W is mid-axis width. […] The log volume data are analyzed with a two-way repeated measures analysis of variance by time and treatment using the MIXED™ procedures in SAS™ software (version 8.2). […]

Series [3] in a line: Atropisomer equilibrium in solution by 1H NMR and LC-MS. The note with it: ambient temperature, after 24 hours. The class given is physicochemical. As for the experimental part:
In aqueous solutions, 8-9% of atropisomer 2 (minor atropisomer) is detected by ^1H NMR and LC-MS in equilibrium with atropisomer 1 (major atropisomer) at ambient temperature after 24 hours. In organic solvents, at ambient temperature after 24 hours, approximately 1-2% of atropisomer 2 is detected by ^1H NMR and LC-MS in equilibrium with atropisomer 1. Although detectable by ^1H NMR and LC-MS analysis, atropisomer 2 is not isolable.

“Also recorded” adds a separate entry of the source.

As for `C[C@H](NC(=O)CCC(F)(F)F)C(=O)N[C@@H]1C(=O)N(CCO)c2ncccc2-c2ccccc21` [Compound 1, 4,4,4-trifluoro-N-[(1S)-2-[[(7S)-5-(2-hydroxyethyl)-6-oxo-7H-pyrido[2,3-d][3]benzazepin-7-yl]amino]-1-methyl-2-oxo-ethyl]butanamide], the Compound-related signs result in series [1] (both, beagle, dog, in vivo, 1.3 mg/kg, 6 days) was “lateral recumbency and labored respiration for the female on Day 7, decreased activity for both animals on Days 6 and 7, and dehydration (decreased skin elasticity) for both animals on Day 7”. In addition, in series [1] (dog, in vivo), the Food consumption entry is “Decreased food consumption also occurred in all compound-treated groups”; the “Gastrointestinal toxicity, daily versus three times/week at same total weekly dose” value is on record as “more severe gastrointestinal toxicity compared to three times/week dosing”; the “Tolerability of once daily administration at same total weekly dose” value is “once daily administration is not tolerated”. In series [1] (dog, in vivo, 0.3 mg/kg), the Compound-related signs entry was “mucoid, and watery feces”; the Pathology findings entry was “adverse inflammatory changes in the large intestine and evidence of systemic inflammation”. In series [1] (dog, in vivo, 1.3 mg/kg), the Intestinal changes entry is “up to marked mucoid enteropathy with red fluid intestinal contents, erosion, ulceration, and mostly neutrophilic mixed inflammation”; the “Other symptoms (feces)” value was “red, dark (female only), mucoid, and watery (female only), feces”. Moreover, the Compound-related signs entry in series [1] (dog, in vivo, 3 mg/kg) is “red (male only), mucoid, and watery (male only), feces”. Also, the Survival result in series [1] (1.3 mg/kg daily) is “euthanized following 6 daily doses due to poor condition”. Also, the Survival entry in series [1] (0.3 or 3 mg/kg 3 times/week (Days 2, 4, and 6)) is “survived until the scheduled termination; also recorded: survived until the scheduled necropsy”. Besides, the “% TGI” value in series [2] was 54.96 (<0.05 to %. For the same compound, the “atropisomer 2 (minor atropisomer) in equilibrium with atropisomer 1” value in series [3] (aqueous solutions) is on record as 8-9%. Also, the “atropisomer 2 (minor atropisomer) in equilibrium with atropisomer 1” value in series [3] (organic solvents) is recorded as 1-2%.
